Measured values published in US20170281611A1, “QUINOLINES AND THEIR USE FOR TREATING ENDOPLASMIC RETICULUM STRESS-CAUSED DISEASES” (EIGER BIOPHARMACEUTICALS, INC., priority 2014, published 2017).

Test system: 6-OHDA lesioned Wistar rats
Experiment: Rat unilateral 6-OHDA model of Parkinson's disease, initiation time (IT) test
Format: in vivo
Conditions: D11, 10 mg/kg IP once daily for 15 days, t test, vs 6-OHDA/Vehicle
Description: Fifty adult male Wistar rats were used. The rats from different groups (G1 to G5) were randomized. At the beginning of the study, the rats were about 5 weeks old and naive to previous administration of any drug.
A stereotaxic injection of 6-OHDA (G2 to G5) or saline (G1: sham group) was performed to induce a unilateral dopaminergic lesion on day 0 (D0). Surgery was performed on D0 under ketamine (50 mg/kg) and xylazine (10 mg/kg). The rats of G2 to G5 received a unilateral injection of 6-OHDA (6 μL) in the left substantia nigra pars compacta. Jouve et al., J. Neurosci. 2010, 30, 9919-9928. The rats of the G1 sham group were injected with saline. During surgery, local analgesia was achieved using subcutaneous injections of lidocaine. At the end of surgery, the rats were treated with buprenorphine (0.05 mg/kg, S.C.).
The IT test was performed both before the 6-OHDA lesion induction on D0 and on day 11 (D11) after the 6-OHDA lesion induction. Around six days (D−6) before the 6-OHDA lesion induction, the IT test was performed eight consecutive times for each limb of each rat to obtain baseline values. On D11, the IT test was performed one hour after the rats were dosed. For every test, only one of the two forelimbs of each rat was left free to move and the time that is necessary to initiate the movement toward a plane surface was recorded using 180 sec as break-off point. […]

SMILES: Cc1ccc2cccc(NC(=O)c3ccc(OC(C)C)cc3)c2n1 [Compound A12, 4-Isopropoxy-N-(2-methylquinolin-8-yl)benzamide]
- akinesia measured in the IT test: statistically significant improvement
